From the Kinase Knowledgebase extract (Sharma et al. 2016)

molecular target: MAPK14 (human) (UniProt Q16539); experiment: Inhibition of MAPK14 Kinase Activity
Sequence (Q16539 whole entry, looked up): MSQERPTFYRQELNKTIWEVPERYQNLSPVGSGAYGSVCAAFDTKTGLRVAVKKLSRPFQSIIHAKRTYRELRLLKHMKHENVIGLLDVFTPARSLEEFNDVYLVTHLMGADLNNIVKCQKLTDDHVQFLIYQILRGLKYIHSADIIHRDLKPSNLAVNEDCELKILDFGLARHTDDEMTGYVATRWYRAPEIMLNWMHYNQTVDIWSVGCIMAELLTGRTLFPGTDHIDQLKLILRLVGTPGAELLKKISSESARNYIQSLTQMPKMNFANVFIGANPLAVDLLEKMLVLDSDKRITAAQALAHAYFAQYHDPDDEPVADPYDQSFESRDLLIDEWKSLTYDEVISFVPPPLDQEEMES

| Compound | IC50 [nM] |
| --- | --- |
| NC(=O)c1sc2c(ccc(=O)n2-c2ccccc2)c1Nc1ccccc1 | ≤ 1000 |
| NC(=O)c1sc2c(ccc(=O)n2-c2ccccc2)c1Nc1c(Cl)cccc1Cl | ≤ 1000 |
| Cc1cccc(Nc2c(C(N)=O)sc3c2ccc(=O)n3C2CC2)c1 | ≤ 1000 |
| CCOC(=O)c1sc2c(ccc(=O)n2-c2ccc3c(ccn3S(C)(=O)=O)c2)c1Nc1ccccc1C#N | ≤ 1000 |
| N#Cc1sc2c(ccc(=O)n2-c2ccc(OC[C@@H](O)CO)cc2)c1Nc1ccc(F)cc1F | ≤ 1000 |
| CCOC(=O)c1sc2c(ccc(=O)n2CC2CC2)c1Nc1cccc(Br)c1 | ≤ 1000 |
| CCOC(=O)c1sc2c(ccc(=O)n2-c2ccccc2)c1Nc1cccnc1Cl | ≤ 1000 |
| Cc1cc(Nc2c(C(N)=O)sc3c2ccc(=O)n3-c2ccccc2Cl)ccc1F | ≤ 1000 |
| N#Cc1ccccc1Nc1c(C(N)=O)sc2c1ccc(=O)n2-c1ccccc1 | ≤ 1000 |
| N#Cc1sc2c(ccc(=O)n2-c2ccccc2Cl)c1Nc1ccccc1 | ≤ 1000 |
| CC(C)(O)CNC(=N)c1sc2c(ccc(=O)n2-c2ccccc2)c1Nc1ccc(F)cc1F | ≤ 1000 |
| Cc1ccc(C#N)c(Nc2c(C(N)=O)sc3c2ccc(=O)n3-c2ccccc2)c1 | ≤ 1000 |
| CCN(CC)C(=N)c1sc2c(ccc(=O)n2-c2ccccc2)c1Nc1cccc(C)c1 | ≤ 1000 |
| NC(=O)c1sc2c(ccc(=O)n2CC2CC2)c1Nc1ccc(F)cc1F | ≤ 1000 |
| Cc1cc(=O)n(-c2ccccc2)c2sc(C(N)=O)c(Nc3ccccc3)c12 | ≤ 1000 |
| NC(=O)c1sc2c(ccc(=O)n2-c2ccc(C(O)CO)cc2)c1Nc1ccccc1 (stereo not drawn) | ≤ 1000 |
| Cc1cc(Nc2c(C(N)=O)sc3c2ccc(=O)n3-c2ccccc2)ccc1F | ≤ 1000 |
| Cc1cc(Nc2c(C#N)sc3c2ccc(=O)n3C2CC2)ccc1F | ≤ 1000 |
| NC(=O)c1sc2c(ccc(=O)n2Cc2ccccc2)c1Nc1ccccc1 | ≤ 1000 |
| Cc1cccc(Nc2c(C#N)sc3c2ccc(=O)n3CC2CC2)c1 | ≤ 1000 |
| Cc1cccc(Nc2c(C(N)=O)sc3c2ccc(=O)n3-c2ccccc2C)c1 | ≤ 1000 |
| NNC(=O)c1sc2c(ccc(=O)n2-c2ccccc2)c1Nc1ccccc1 | ≤ 1000 |
| CCOC(=O)c1sc2c(ccc(=O)n2Cc2ccccc2)c1Nc1ccccc1 | ≤ 1000 |
| Cc1ccc(Nc2c(C#N)sc3c2ccc(=O)n3CC2CC2)cc1C | ≤ 1000 |
| NC(=O)c1sc2c(ccc(=O)n2-c2ccccc2)c1Nc1cccc(C(F)(F)F)c1 | ≤ 1000 |
| NC(=O)c1sc2c(ccc(=O)n2-c2ccccc2)c1Nc1ccccc1OC(F)F | ≤ 1000 |
| CCOC(=O)c1sc2c(ccc(=O)n2-c2ccc([S+](C)[O-])cc2)c1Nc1ccccc1 (stereo not drawn) | ≤ 1000 |

| Compound | IC50 [nM] |
| --- | --- |
| NS(=O)(=O)c1sc2c(ccc(=O)n2-c2ccccc2)c1Nc1ccc(F)cc1F | ≤ 1000 |
| CCOC(=O)c1sc2c(ccc(=O)n2-c2ccc(F)cc2)c1Nc1ccccc1C#N | ≤ 1000 |
| C=Cc1ccc(-n2c(=O)ccc3c(Nc4ccccc4)c(C(N)=O)sc32)cc1 | ≤ 1000 |
| CCOC(=O)c1sc2c(ccc(=O)n2-c2ccccc2)c1Nc1ccc(C#N)cc1 | ≤ 1000 |
| NC(=O)c1sc2c(ccc(=O)n2CC2CC2)c1Nc1cccc(Br)c1 | ≤ 1000 |
| Cc1ccccc1Nc1c(C#N)sc2c1ccc(=O)n2-c1ccccc1 | ≤ 1000 |
| Cc1cccc(Nc2c(C#N)sc3c2ccc(=O)n3-c2ccccc2Cl)c1 | ≤ 1000 |
| Cc1cccc(Nc2c(C(=N)N)sc3c2ccc(=O)n3-c2ccccc2)c1 | ≤ 1000 |
| CN(C)c1ccc(-n2c(=O)ccc3c(Nc4ccccc4)c(C(=O)NCCCn4ccnc4)sc32)cc1 | ≤ 1000 |
| Cc1cc(Nc2c(C(N)=O)sc3c2ccc(=O)n3-c2ccc(F)cc2)ccc1F | ≤ 1000 |
| CCOC(=O)c1sc2c(ccc(=O)n2-c2ccccc2)c1Nc1cc(C)ccc1C#N | ≤ 1000 |
| CCOC(=O)c1sc2c(ccc(=O)n2-c2ccc3[nH]ccc3c2)c1Nc1ccccc1C#N | ≤ 1000 |
| N#Cc1sc2c(ccc(=O)n2-c2ccccc2)c1Nc1ccc(F)cc1F | ≤ 1000 |
| CCOC(=O)c1sc2c(ccc(=O)n2CC2CC2)c1Nc1ccc(F)cc1F | ≤ 1000 |
| Cc1cccc(Nc2c(C(N)=O)sc3c2ccc(=O)n3-c2ccc(F)cc2)c1C#N | ≤ 1000 |
| N#Cc1sc2c(ccc(=O)n2-c2ccccc2)c1Nc1ccccc1 | ≤ 1000 |
| CCNC(=O)c1sc2c(ccc(=O)n2-c2ccccc2)c1Nc1ccccc1 | ≤ 1000 |
| NC(=O)c1sc2c(ccc(=O)n2-c2ccsc2)c1Nc1ccccc1 | ≤ 1000 |
| NC(=O)c1sc2c(ccc(=O)n2-c2ccccc2)c1Nc1cccc(Cl)n1 | ≤ 1000 |
| CCOC(=O)c1sc2c(ccc(=O)n2-c2ccc(F)cc2)c1Nc1ccc(F)c(C)c1 | ≤ 1000 |
| O=C(NCCN1CCCCC1)c1sc2c(ccc(=O)n2-c2ccccc2)c1Nc1ccccc1 | ≤ 1000 |
| O=C(NCCCN1CCOCC1)c1sc2c(ccc(=O)n2-c2ccccc2)c1Nc1ccccc1 | ≤ 1000 |
| COc1ccc(-n2c(=O)ccc3c(Nc4ccc(F)cc4F)c(C#N)sc32)cc1 | ≤ 1000 |
| CCOC(=O)c1sc2c(ccc(=O)n2-c2ccccc2)c1Nc1cccc(OC(F)(F)F)c1 | ≤ 1000 |
| NC(=O)c1sc2c(ccc(=O)n2-c2ccccc2)c1Nc1ccccc1O | ≤ 1000 |
| Cc1cccc(Nc2c(C#N)sc3c2ccc(=O)n3-c2ccc(F)cc2)c1 | ≤ 1000 |
